The values below come from patent US20170008888A1 (KYORIN PHARMACEUTICAL CO., LTD., priority 2014, published 2017).

The structures appear in SMILES notation.

Test [1] concerns primary asthmatic human bronchial epithelial cells. Kind of test: IL-17A- or IL-17F-mediated cytokine response by primary asthmatic human bronchial epithelial cells. The class given is cell-based. To be noted: Epithelial cell, 0.25 μM, positive control, data not shown, read-out: inhibition of measured cytokines. The procedure:
The virally immortalized, normal human bronchial epithelial cell line BEAS-2B was purchased from ATCC (Manassas, Va.). Primary bronchial epithelial cells isolated from a patient diagnosed with asthma were obtained from Lonza (Allendale, N.J.). Both cells were maintained in complete Bronchial Epithelial Cell Growth Medium (BEGM) (Lonza). Cells were seeded at 1e5 cells/ml and incubated at 37° C. in a humidified atmosphere at 5% CO2 overnight to adhere. Cells were pre-treated with test compounds (10 μM down by ⅕ in a 3- or 4-point serial dilution series) for 1 h at 37° C. in a humidified atmosphere at 5% CO2. DMSO at a final concentration of 0.1% served as the non-inhibited control. Budesonide (Selleck Chemicals, Houston, Tex.), a clinically approved glucocorticoid steroid for the treatment of asthma, was tested as a positive control at 0.25 μM. Cells were stimulated with 50 ng/ml of either human recombinant IL-17A or IL-17F (eBioscience, San Diego, Calif.), for 48 h. Supernatant was then collected and analyzed for cytokine concentrations using the Bio-Plex Pro Human Cytokine 17-Plex Panel (Bio-Rad Laboratories, Hercules, Calif.) according to the manufacturer's instructions. Magnetic beads were measured on the Bio-Plex MAGPIX multiplex reader instrument using the accompanying xPONENT 4.2 acquisition software (Bio-Rad Laboratories). Data were analyzed via the Bio-Plex Manager software v6.1 (Bio-Rad Laboratories). For the primary asthmatic bronchial epithelial cells, five (+IL-17F) to thirteen (+IL-17A) cytokines were in range of detection under the conditions used. […] Select cytokines were analyzed for comparison using the BEAS-2B cell line.
BLQ: cytokine levels were below limits of quantitation.

The target of test [2] is T1, recombinant human ERK5 catalytic domain (Homo sapiens, UniProt Q13164).
T1 construct: Recombinant human ERK5 catalytic domain radiometric assays; purchased Reaction Biology, Corp (Malvern, Pa.), which ran the assay as a service
Kind of test: Recombinant human ERK5 radiometric (HotSpot) assay. The class given is biochemical. To be noted: 10 μM ATP, 20 μM myelin basic protein substrate; read-out: rhERK5 IC50. The procedure: In this example, potency of the compounds in recombinant human ERK5 was assayed.
Recombinant human ERK5 catalytic domain radiometric assays were performed by Reaction Biology, Corp (Malvern, Pa.). The HotSpot radiometric assay is based on conventional filter-binding assays (Nature Biotechnology (2011) 29: 1039-1045). Compounds were tested at 20 μM down by ⅓ in a 10 point serial dilution series. Briefly, [γ-33P]-ATP was used as the tracer along with 10 μM cold ATP to label ERK5 in the presence of 20 μM myelin basic protein substrate.

Test [3] concerns the target T2, BRD4 bromodomain domain I [BRD4(1)] (Homo sapiens, UniProt O60885).
T2 construct: BRD4 bromodomain domain I [BRD4(1)]; purchased Cayman Chemicals
Kind of test: BRD4 bromodomain domain 1 inhibition assay (TR-FRET). The class given is binding. In outline: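 0.5% DMSO, in triplicate, using Cayman BRD4(1) TR-FRET protocol with slight modification. 670/620 nm ratio normalized to 10 μM JQ1, with DMSO control set as 0% inhibition.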
(In general: TR-FRET usually uses a lanthanide donor and a delayed reading to cut background.)

Another test has as its system human PBMCs. Kind of test: Human PBMC TNF-α response to endotoxin (ELISA). The class given is cell-based. To be noted: 0.1 μg/ml LPS 16 h, read-out: EC50 for the inhibition of the human PBMC TNF-α response to endotoxin, ave. ± S.D. In outline:
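PBMCs at 2e6 cells/ml in RPMI 1640 with 10% charcoal-dextran-treated FBS were pre-treated 1 h at 37 °C with compound (4-point 1:5 dilution from 10 μM). Stimulation with 0.1 μg/ml E. coli 0111:B4 LPS for 16 h; TNF-α measured by ELISA (A450) in 25-fold diluted supernatant.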

For test [4], the system named is collagen-induced arthritis mouse model. Kind of test: Collagen-induced arthritis (CIA) mouse model: histopathology of tibiofemoral and tarsal/phalangeal joints. In kind it is in vivo, mouse (DBA/1J).
Test [5] has the same test system. Briefly: Collagen-induced arthritis (CIA) mouse model: in-life disease score, paw thickness. The class given is in vivo, mouse (DBA/1J). To be noted: for change in group average disease score - mean, Day versus Day 21 (start of treatment): Tofacitinib 15 mg/kg PO BID from D21.
The mark [6] stands for this setting: Group 2 (n=10): Tofacitinib 15 mg/kg PO BID D21-D42.
The mark [7] stands for this setting: Group 2: Tofacitinib 15 mg/kg PO BID D21-D42.

T1 sequence (Q13164 55-347 limits assumed): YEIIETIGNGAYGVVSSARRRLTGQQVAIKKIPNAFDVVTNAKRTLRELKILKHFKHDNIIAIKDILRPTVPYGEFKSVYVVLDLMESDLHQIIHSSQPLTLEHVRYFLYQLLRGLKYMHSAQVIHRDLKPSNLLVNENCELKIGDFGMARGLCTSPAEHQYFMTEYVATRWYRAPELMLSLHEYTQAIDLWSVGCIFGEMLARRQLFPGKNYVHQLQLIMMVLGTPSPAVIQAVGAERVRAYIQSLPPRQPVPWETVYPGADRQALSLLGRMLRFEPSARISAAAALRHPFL

As to `CCCC1O[C@@H]2C[C@H]3[C@@H]4CCC5=CC(=O)C=C[C@]5(C)[C@H]4[C@@H](O)C[C@]3(C)[C@]2(C(=O)CO)O1` (stereo partly drawn) [Budesonide, reference compound], the inhibition (as a rule, the relative decrease from the control value, in per cent) at […] in test [1] was less than 50%.
As to `CCO[C@H]1CC[C@H](Nc2cc3c(cn2)N(C)C(=O)c2ccccc2N3C)CC1` [Compound T110], the IC50 (in general, the concentration that inhibits the measured activity by half) is 0.05 to 0.2 µM in test [2] and more than 5 µM in test [3]. Moreover, the concentration for a half-maximal effect (EC50) (commonly the midpoint of the concentration-response curve) in the test with human PBMCs is 2.74 ± 1.87 µM.
On the same counts, the results for `CCOC1CCCC[C@H]1Nc1cc2c(cn1)N(C)C(=O)c1ccccc1N2C` (stereo partly drawn) [Compound T113] are more than 0.2 µM, more than 5 µM and 2.95 ± 2.17 µM.
With `CN1C(=O)c2ccccc2N(C)c2cc(N[C@H]3CC[C@@H](O)CC3)ncc21` [Compound T114], the IC50 was more than 0.2 µM in test [2] and more than 5 µM in test [3]. In addition, the concentration giving a half-maximal response (EC50) in the test with human PBMCs was 3.07 ± 3.35 µM.
Turning to `CN1C(=O)c2ccccc2Sc2cc(N[C@H]3CC[C@H](O)CC3)ncc21` [Compound T116], the IC50 in test [2] is more than 0.2 µM; in test [3] it was more than 5 µM. The EC50 with human PBMCs was found to be 1.66 ± 1.53 µM.
As to `CN1C(=O)c2ccccc2Oc2cc(N[C@H]3CC[C@H](O)CC3)ncc21` [Compound T117], the IC50 in test [2] is more than 0.2 µM; in test [3], more than 5 µM. Further, the EC50 in the test with human PBMCs was determined as 2.7 ± 2.72 µM.
As for `CN1C(=O)c2cccc(F)c2N(C)c2cc(N[C@H]3CC[C@H](O)CC3)ncc21` [Compound T118], the IC50 is more than 0.2 µM in test [2] and more than 5 µM in test [3]. The EC50 in the test with human PBMCs worked out at 2.43 ± 1.78 µM.
Turning to `CN1C(=O)c2c(F)cccc2N(C)c2cc(N[C@H]3CC[C@H](O)CC3)ncc21` [Compound T119], the results for the IC50 in test [2] and in test [3] were 0.05 to 0.2 µM and less than 2 µM, respectively. In addition, in the test on human PBMCs, the EC50 was 0.98 ± 0.93 µM.
As for `CN1C(=O)c2cccc(Cl)c2N(C)c2cc(N[C@H]3CC[C@H](O)CC3)ncc21` [Compound T120], the IC50 in test [2] was more than 0.2 µM; in test [3], more than 5 µM. Further, the EC50 with human PBMCs is 2.39 ± 2.11 µM.
For `COc1cccc2c1N(C)c1cc(N[C@H]3CC[C@H](O)CC3)ncc1N(C)C2=O` [Compound T122], in that order: 0.05 to 0.2 µM, more than 5 µM and 3.49 ± 3 µM.
On the same counts, the results for `CCOc1cc(C(=O)N2CCN(C3CCN(C)CC3)CC2)ccc1Nc1cc2c(cn1)N(C)C(=O)c1c(F)cccc1N2C` [Compound T124] are 0.02 to 0.05 µM, less than 2 µM and 0.31 ± 0.22 µM.
As for `CCOc1cc(C(=O)N2CCN(C3CCN(C)CC3)CC2)ccc1Nc1cc2c(cn1)N(C)C(=O)c1cccc(F)c1N2C` [Compound T125], the IC50 in test [2] fell in the range of 0.05 to 0.2 µM; in test [3], 2 to 5 µM. Further, the EC50 with human PBMCs was found to be 0.79 ± 0.2 µM.
Regarding `CCOc1cc(C(=O)N2CCN(C3CCN(C)CC3)CC2)ccc1Nc1cc2c(cn1)N(C)C(=O)c1cccc(Cl)c1N2C` [Compound T126], the IC50 is 0.05 to 0.2 µM in test [2] and more than 5 µM in test [3]. In addition, the EC50 with human PBMCs stood at 0.97 ± 0.83 µM.
On to `CN1C(=O)c2ccccc2N(C)c2cc(N[C@H]3CC[C@H](NS(N)(=O)=O)CC3)ncc21` [Compound T128], for which the IC50 in test [2] fell in the range of 0.05 to 0.2 µM; in test [3] it was 2 to 5 µM. Moreover, the EC50 with human PBMCs turned out to be 2.51 ± 1.47 µM.
On the same counts, the results for `CN1C(=O)c2ccccc2N(C)c2cc(N[C@H]3CC[C@H](NS(=O)(=O)C4CC4)CC3)ncc21` [Compound T129] are 0.05 to 0.2 µM, 2 to 5 µM and 1.79 ± 1.44 µM.
As for `CN1C(=O)c2ccccc2N(C)c2cc(N[C@H]3CC[C@H](N4CCCS4(=O)=O)CC3)ncc21` [Compound T136], the IC50 in test [2] was 0.05 to 0.2 µM; in test [3], more than 5 µM. Besides, in the test on human PBMCs, the concentration giving a half-maximal response (EC50) is 2.03 ± 1.91 µM.
`C[C@H]1C[C@H](Nc2cc3c(cn2)N(C)C(=O)c2ccccc2N3C)CC[C@H]1O` [Compound T137]: the IC50 in test [2] was 0.05 to 0.2 µM; in test [3], more than 5 µM. The EC50 in the test on human PBMCs was 1.11 ± 0.99 µM.
With `C[C@@H]1CCN(C(=O)CC#N)C[C@@H]1N(C)c1ncnc2[nH]ccc12` [Tofacitinib, reference compound], in test [4] (Day 42, H&E), the “histopathology of hind-limb joints (knee, paw/tarsal), in words” value is “less effective at mitigating cartilage and periosteal erosion at the knee and ulceration and synovial hyperplasia than 46”. In addition, in test [4] (setting [6]), the “Animals with normal tarsal joints (% of total n in group)” value is 40%. In addition, the “Number of animals with normal tarsal joints” value in test [4] (setting [6]) is 4. Besides, the “Tibiofemoral joint score: cartilage erosion/ulceration” value in test [4] (setting [7]) is recorded as 16.3. Also, the “Tibiofemoral joint score: inflammation” value in test [4] (setting [7]) is on record as 16.3. Moreover, the “Tibiofemoral joint score: periosteal proliferation/erosion” value in test [4] (setting [7]) turned out to be 7.8. For the same molecule, the “Tibiofemoral joint score: synovial hyperplasia” value in test [4] (setting [7]) is 5.0. In addition, the “change in group average disease score - mean, Day versus Day 21 (start of treatment)” value in test [5] (Day 21) is 0.0; in test [5] (Day 24), 0.3; in test [5] (Day 26) it was 0.9; in test [5] (Day 28), 1.8; in test [5] (Day 31), 2.3; in test [5] (Day 33) it was 2.6. The “change in group average disease score - mean, Day versus Day 21 (start of treatment)” value in test [5] (Day 35) came to 2.7; in test [5] (Day 37), 2.2; in test [5] (Day 39), 2.5. Also, the “percent reduction in overall disease and total paw scores” value in test [5] (treatment Day 21-42, Tofacitinib 15 mg/kg BID PO, doses in Table 28) is “about 55%”.
